Measured values published in publication PMC9460781, “In Vitro and In Silico Study of the α-Glucosidase and Lipase Inhibitory Activities of Chemical Constituents from Piper cumanense (Piperaceae) and Synthetic Analogs” (Plants, 2022).
Values after ≈ are worked out from the molar mass of the structure shown.

How the values were obtained:
[1] = molecular target: T1, α-glucosidase (AG) type I from Saccharomyces cerevisiae (Saccharomyces cerevisiae, UniProt P53341); experiment: Kinetic study on AG (Ki, type of inhibition); type: biochemical; settings: for α-Glucosidase Inhibition Type: Lineweaver–Burk, abbreviated M, NC in Table S1; for Ki: nonlinear regression of enzyme inhibition kinetics
T1 construct: purchased Sigma-Aldrich L-SLBX6245 (printed); host or cells: Saccharomyces cerevisiae
T1 sequence (P53341 whole entry): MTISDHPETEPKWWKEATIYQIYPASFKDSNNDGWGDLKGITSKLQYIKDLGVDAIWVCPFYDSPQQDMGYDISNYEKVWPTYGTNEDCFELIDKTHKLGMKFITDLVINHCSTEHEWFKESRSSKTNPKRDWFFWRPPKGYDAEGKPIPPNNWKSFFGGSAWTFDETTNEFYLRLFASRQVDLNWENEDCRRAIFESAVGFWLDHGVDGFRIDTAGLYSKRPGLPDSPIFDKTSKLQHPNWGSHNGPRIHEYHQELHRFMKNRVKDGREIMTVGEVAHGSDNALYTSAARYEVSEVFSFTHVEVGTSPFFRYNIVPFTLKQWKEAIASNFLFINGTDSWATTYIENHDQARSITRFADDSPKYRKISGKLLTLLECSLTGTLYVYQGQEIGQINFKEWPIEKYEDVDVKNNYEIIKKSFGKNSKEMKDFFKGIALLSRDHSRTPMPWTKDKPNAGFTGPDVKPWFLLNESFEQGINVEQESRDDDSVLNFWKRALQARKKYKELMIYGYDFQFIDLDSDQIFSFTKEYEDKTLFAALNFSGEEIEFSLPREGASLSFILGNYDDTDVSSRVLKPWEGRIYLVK
Excerpt: (§1) The enzymes used in this study were pancreatic lipase type II (PL) from porcine pancreas (100–400 units/mg protein, L-SLBD2433V, EC. 3.1.1.3, Sigma-Aldrich, San Luis, MO, USA) and α-glucosidase (AG) type I from Saccharomyces cerevisiae (lyophilized powder, ≥10 units/mg protein, L-SLBX6245, EC 3.2.1.20, Sigma-Aldrich, San Luis, MO, USA). 4-nitrophenyl dodecanoate (Sigma-Aldrich, San Luis, MO, USA) was used as the substrate for PL while 4-nitrophenyl-α-D-glucopyranoside (Sigma-Aldrich, San Luis, MO, USA) for AG. Absorbance readings were performed in a Multiskan GO microplate reader (Thermo Scientific®, Waltham, MA, USA).
(§2) Kinetic studies to determine the type of inhibition were performed with PL and AG using a methodology the same as that described in the inhibitory activity assays. […] Five substrate concentrations were used for each of the enzymes in the range between 12.5 to 200 μM p-nitrophenyl dodecanoate for PL and 25 to 800 μM for p-nitrophenyl-α-D-glucopyranoside in AG. Kinetic experiments were performed in triplicate in two independent experiments. Inhibition constants (Ki) were calculated from (substrate) vs reaction rate curves using nonlinear regression of the enzyme inhibition kinetic function. Additionally, the inhibition mechanism was graphically determined by applying the double reciprocal Lineweaver–Burk regression function.

[2] = molecular target: T2, pancreatic lipase type II (PL) from porcine pancreas (Sus scrofa, UniProt P00591); experiment: PL inhibition assay; type: biochemical; settings: p-nitrophenyl dodecanoate substrate, pH 8.4, 37 °C; NA: not active
T2 construct: purchased Sigma-Aldrich L-SLBD2433V (printed); host or cells: porcine pancreas
T2 sequence (P00591 1-450): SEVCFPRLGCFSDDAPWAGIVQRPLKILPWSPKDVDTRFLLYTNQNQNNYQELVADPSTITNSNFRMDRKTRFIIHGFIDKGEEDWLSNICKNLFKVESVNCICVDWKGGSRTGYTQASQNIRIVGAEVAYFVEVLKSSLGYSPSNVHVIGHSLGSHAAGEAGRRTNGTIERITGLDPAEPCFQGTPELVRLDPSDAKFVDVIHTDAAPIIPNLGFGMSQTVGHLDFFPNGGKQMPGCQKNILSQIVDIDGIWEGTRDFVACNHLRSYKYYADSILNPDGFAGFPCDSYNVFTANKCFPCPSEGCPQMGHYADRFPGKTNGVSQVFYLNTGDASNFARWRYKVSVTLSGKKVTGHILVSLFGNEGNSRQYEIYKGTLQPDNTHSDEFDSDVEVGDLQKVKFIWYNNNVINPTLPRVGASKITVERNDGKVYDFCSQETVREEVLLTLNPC
Excerpt: as §1
Determination of enzymatic inhibition of the identified compounds against the PL enzyme was carried out following the methodology described in the literature with some modifications. The concentrations were evaluated for compounds from 300 to 6.25 µM. […] In 96-well boxes, 30 μL of extract or compound stock solution, 30 μL of PL solution (200 U/mL), and 160 μL of Tris-HCl buffer (0.1 M, pH: 8.4) were mixed. The mixture obtained was pre-incubated for 30 min at 37 °C. Subsequently, 30 μL of p-nitrophenyl dodecanoate (100 μM) were added to complete a final volume of 250 μL and incubated for 40 min at 37 °C. After the incubation time, the absorbance was measured at 405 nm. All assays were performed in triplicate in two independent assays. IC50 values were estimated by nonlinear regression analysis. Statistically significant differences in biological effects of inhibitors (compounds) were analyzed and compared using the ANOVA test, supplemented by Tukey HSD post hoc analysis. All reported data corresponded to the average of three repetitions ± SD, and the statistical significance considered was p < 0.05.

[3] = molecular target: T2, pancreatic lipase type II (PL) from porcine pancreas; experiment: Kinetic study on PL (Ki, type of inhibition); type: biochemical; settings: for Ki: nonlinear regression of enzyme inhibition kinetics; for Pancreatic Lipase Inhibition Type: Lineweaver–Burk, abbreviated UC, C, NC, M in Table S1
Excerpt: as §1, §2

chemokine receptor CCR5 = test system: chemokine receptor CCR5; set-up: method as in PMID 14561515; settings: cited from earlier work
[4] = molecular target: T1, α-glucosidase (AG) type I from Saccharomyces cerevisiae; experiment: biochemical; settings: α-Glucosidase IC50, p-nitrophenyl-α-D-glucopyranoside substrate, pH 7.2, 37 °C; NA: not active
Excerpt: as §1
Determination of enzyme inhibition of the compounds identified against the AG enzyme was carried out following the methodology described in the literature with some modifications. The concentrations were evaluated for compounds from 300 to 6.25 µM. […] In 96-well boxes, 10 μL of stock solution of each extract or compound, 20 μL of GA solution (0.5 U/mL), and 200 μL of phosphate buffer (0.1 M, pH: 7.2) were mixed. The mixture obtained was pre-incubated for 30 min at 37 °C. […] After the reaction time, the absorbance at 405 nm was measured. […] Statistically significant differences in the biological effects of inhibitors (compounds) were analyzed and compared using ANOVA, supplemented by Tukey HSD post hoc analysis. […]

AG = settings: cited from earlier work

Compound | IC50 [2] | Ki [3] | Pancreatic Lipase Inhibition Type [3] | other results
C[C@H]1O[C@H](O[C@H]2[C@H](O)[C@@H](O)[C@@H](O[C@H]3[C@H](O)[C@@H](O)C(O)O[C@@H]3CO)O[C@@H]2CO)[C@H](O)[C@@H](O)[C@@H]1N[C@H]1C=C(CO)[C@@H](O)[C@H](O)[C@H]1O (stereo partly drawn) [Acarbose, reference compound] |  |  |  | α-Glucosidase Inhibition Type [1]: Competitive
CC(C)=CCC/C(C)=C/C(=O)c1cc(C(=O)O)cc(CC=C(C)C)c1O [Compound 1, (2′E) cumenic acid] | 33.8 ± 5.95 µM | 7.88 µM |  | 
CC(C)=CCC/C(C)=C\C(=O)c1cc(C(=O)O)cc(CC=C(C)C)c1O [Compound 2, (2′Z) cumenic acid] | 36.2 ± 5.05 µM | 8.46 µM |  | melting point: 132 to 134 °C
CC(C)=CCCC1(C)C=Cc2cc(C(=O)O)cc(CC=C(C)C)c2O1 (stereo not drawn) [Compound 3, gaudichaudianic acid] | 36.3 ± 6.5 µM | 18 µM | Competitive | 
COc1ccc(C(=O)O)cc1CC=C(C)C [Compound 4, 4-methoxy-3-(3′-methyl-2’-butenyl)benzoic acid] |  |  |  | Pancreatic Lipase IC50 [2]: did not show any activity; ability to bind to the chemokine receptor CCR5 (chemokine receptor CCR5): confirmed; melting point: 112 to 113 °C
CC(C)=CC(=O)c1ccccc1O [Compound 5, 1-(2-Hydroxy-phenyl)-3-methyl-but-2-en-1-one] | 48.3 ± 2.57 µM | 48.3 µM | Noncompetitive | 
CCCCC1(O)CC(C)(C)Oc2ccccc21 (stereo not drawn) [Compound 6, 4-Butyl-2,2-dimethyl-chroman-4-ol] | 28.3 ± 2.9 µM | 28.3 µM | Noncompetitive | IC50 [4]: 154 ± 4.65 µM; α-Glucosidase Inhibition Type [1]: mixed-type; Ki [1]: 51.3 µM
CC(C)=CCCC(C)=CC(O)c1ccc2c(c1)C=CC(C)(C)O2 (stereo not drawn) [Compound 7, 1-(2,2-Dimethyl-2H-chromen-6-yl)-3,7-dimethyl-octa-2,6-dien-1-ol] | 33.1 ± 5.28 µM | 25.4 µM | Competitive | IC50 [4]: 134 ± 5.6 µM; α-Glucosidase Inhibition Type [1]: Noncompetitive; Ki [1]: 136 µM
COC(=O)c1cc(CC=C(C)C)c(O)c(C(=O)C=C(C)CCC=C(C)C)c1 [Compound 8, 3-(3,7-Dimethyl-octa-2,6-dienoyl)-4-hydroxy-5-(3-methyl-but-2-enyl)-benzoic acid methyl ester] | 55.8 ± 2.98 µM | 42.8 µM | Mixed | 
CCCCCCCCCCC[C@@H](C[C@@H]1OC(=O)[C@H]1CCCCCC)OC(=O)[C@H](CC(C)C)NC=O [Orlistat, reference compound] |  |  | Irreversible | 
CO[C@H]1C=CC(=O)N1C(=O)CCc1ccccc1 [chaplupyrrolidone B] |  |  |  | IC50 (AG): 430 µM
O=C(/C=C/C=C/c1ccc2c(c1)OCO2)N1CCCCC1 [piperine] |  |  |  | IC50 on AG (AG): 147 µg/mL (≈ 515 µM)
